Data set [1] concerns the target T1, Solute carrier family 15 member 1 (Homo sapiens) (UniProt P46059).
T1 sequence (whole entry): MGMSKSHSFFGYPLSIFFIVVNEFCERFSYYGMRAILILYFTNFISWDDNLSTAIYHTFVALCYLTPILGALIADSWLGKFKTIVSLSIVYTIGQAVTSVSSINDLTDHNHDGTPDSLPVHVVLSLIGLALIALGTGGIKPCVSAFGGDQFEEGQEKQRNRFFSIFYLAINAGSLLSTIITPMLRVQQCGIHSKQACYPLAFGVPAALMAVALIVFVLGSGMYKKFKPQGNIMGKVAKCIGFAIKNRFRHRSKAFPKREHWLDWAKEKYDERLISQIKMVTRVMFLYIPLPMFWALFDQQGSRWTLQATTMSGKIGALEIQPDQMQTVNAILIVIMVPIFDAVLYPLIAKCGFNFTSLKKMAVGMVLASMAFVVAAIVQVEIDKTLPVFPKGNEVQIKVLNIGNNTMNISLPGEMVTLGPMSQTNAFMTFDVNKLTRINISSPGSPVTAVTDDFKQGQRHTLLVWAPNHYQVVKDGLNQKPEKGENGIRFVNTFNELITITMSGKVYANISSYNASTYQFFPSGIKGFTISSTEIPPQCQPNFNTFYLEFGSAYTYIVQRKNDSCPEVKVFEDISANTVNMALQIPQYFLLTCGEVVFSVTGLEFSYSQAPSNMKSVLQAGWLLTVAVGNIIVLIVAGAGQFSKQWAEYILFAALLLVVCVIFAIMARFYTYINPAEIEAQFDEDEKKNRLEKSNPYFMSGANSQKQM
Description: TP_TRANSPORTER: inhibition of VACV uptake (VACV: 0.2 uM, Gly-Sar: 10000 uM) in Xenopus laevis oocytes. Particulars: Oocyte. The data set is classed as functional, cell-based.

The target of data set [2] is T1, Solute carrier family 15 member 1 (Homo sapiens). Description: TP_TRANSPORTER: inhibition of VACV uptake (VACV: 0.2 uM, Carnosine: 10000 uM) in Xenopus laevis oocytes. Particulars: Oocyte. The format is functional, cell-based.
The target in data set [3] is T2, Solute carrier family 15 member 1 (Homo sapiens, UniProt P46059).
T2 sequence (P46059 whole entry): T1 sequence (whole entry)
Description: TP_TRANSPORTER: inhibition of Gly-Sar uptake in Xenopus laevis oocytes. The data set is classed as functional, cell-based, Oocyte.

For data set [4], the target named is T1, Solute carrier family 15 member 1 (Homo sapiens). In words: TP_TRANSPORTER: inhibition of VACV uptake (VACV: 0.2 uM, Gly-Gly-Gly: 10000 uM) in Xenopus laevis oocytes. The format is functional, cell-based. Particulars: Oocyte.
Substrate in data set [5]: CC(C)[C@H](N)C(=O)OCCOCn1cnc2c(=O)nc(N)[nH]c21
Particulars: Xenopus laevis; Oocyte.

Non-standard residues stand in square brackets, D forms with d. Residues, ends and D or L forms follow the SMILES beside them. Sar = CNCC(=O)O

As to `CN(CC(=O)O)C(=O)CN` (H-Gly-[Sar]-OH), the Activity result in data set [1] was “inhibitor [55% (at a rough estimate) of control]”.
Take `NCCC(=O)N[C@@H](Cc1c[nH]cn1)C(=O)O`: the Activity result in data set [2] is “inhibitor [70% (at a rough estimate) of control]”.
Usually Ki stands for the equilibrium dissociation constant of an inhibitor or competing ligand from its target. A higher Ki goes with lower affinity. Take `CC(C)[C@H](N)C(=O)OCCOCn1cnc2c(=O)[nH]c(N)nc21` [VALACYCLOVIR]: the Ki in data set [3] came out at 4.08 mM.
Turning to `NCC(=O)NCC(=O)NCC(=O)O`, the Activity result in data set [4] is “inhibitor [55% (at a rough estimate) of control]”.

B1: Solute carrier family 15 member 1 (Homo sapiens), P46059 (protein)
chain: T1 sequence (whole entry)
The Km is the concentration of substrate that gives half-maximal velocity. As to B1, the Km in data set [5] is 5.94 mM.

The record behind these values is ChEMBL document CHEMBL2074356, “Direct evidence for peptide transporter (PepT1)-mediated uptake of a nonpeptide prodrug, valacyclovir” (Biochem Biophys Res Commun, 1998).
